Data: BindingDB's records for doi:10.7270/Q2T72FVT (University of Pittsburgh, 2007)

Target: Serine/threonine-protein kinase PLK1 (Homo sapiens, UniProt P53350)
Test: potency against Plk1 PBD phosphopeptide binding – biochemical, fluorescence polarization, dose response (AID 877)

Serine/threonine-protein kinase PLK1, sequence (P53350 whole entry): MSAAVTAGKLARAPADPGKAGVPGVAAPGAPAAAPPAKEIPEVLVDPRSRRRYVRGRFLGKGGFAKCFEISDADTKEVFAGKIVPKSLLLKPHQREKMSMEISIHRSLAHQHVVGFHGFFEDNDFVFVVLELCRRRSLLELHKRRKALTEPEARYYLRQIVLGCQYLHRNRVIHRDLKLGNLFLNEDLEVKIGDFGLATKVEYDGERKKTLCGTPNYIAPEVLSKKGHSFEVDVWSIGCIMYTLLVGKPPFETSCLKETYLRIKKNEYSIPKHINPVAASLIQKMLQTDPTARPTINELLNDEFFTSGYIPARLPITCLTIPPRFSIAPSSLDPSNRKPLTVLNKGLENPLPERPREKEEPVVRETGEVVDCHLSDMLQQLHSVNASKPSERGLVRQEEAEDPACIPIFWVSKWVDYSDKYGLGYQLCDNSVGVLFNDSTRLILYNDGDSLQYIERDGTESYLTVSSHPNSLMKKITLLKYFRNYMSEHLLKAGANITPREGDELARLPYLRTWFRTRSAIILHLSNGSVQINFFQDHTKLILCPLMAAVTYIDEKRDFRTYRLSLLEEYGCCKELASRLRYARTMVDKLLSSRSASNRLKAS

For `COc1ccc2c3c(cccc13)NN=C2C` [6-Methoxy-3-methyl-1H-benzo[de]cinnoline], the IC50 was > 50 µM.

In the case of `Cc1[nH]n2c(=O)cc(-c3ccc([N+](=O)[O-])cc3)nc2c1-c1ccccc1` [MLS000547439], the IC50 is reported as > 50 µM.

`Cc1ccc(NC2=CC(=NS(=O)(=O)c3cccs3)c3ccccc3C2=O)c(C)c1` was tested, and the IC50 was > 50 µM.

Molecule `CCOC(=O)c1cc2n(c1N)-c1ccccc1C2=O` [1-amino-4-keto-pyrrol[1,2-a]indole-2-carboxylic acid ethyl ester] has an IC50 of 19.9 µM.

In the case of `OCC(CO)(CO)N=Cc1cc(Br)ccc1O` [(6E)-4-bromanyl-6-[[[2-(hydroxymethyl)-1,3-bis(oxidanyl)propan-2-yl]amino]methylidene]cyclohexa-2,4-dien-1-one], the IC50 is reported as > 50 µM.

With `CC(C)(C)NC(=O)CC(CC(=O)O)c1ccccc1` (stereo not given) [5-(tert-butylamino)-5-keto-3-phenyl-valeric acid] the IC50 was > 50 µM.

With `CNC(=O)CC(C(=O)O)c1ccc(OCC(C)C)cc1` (stereo not given) [2-(4-Isobutoxy-phenyl)-N-methyl-succinamic acid] the IC50 was > 50 µM.

`Cc1nc2c(=O)n(C)c(=O)nc-2n(C)n1` [1,3,6-Trimethyl-1H-pyrimido[5,4-e][1,2,4]triazine-5,7-dione] was tested, and the IC50 was 14.6 µM.

With `CC1CCCC(NC2CCCCNC2=O)C1` (stereo not given) [3-[(3-methylcyclohexyl)amino]-2-azepanone] the IC50 was > 50 µM.

`C=CCn1c2ccccc2c2nnc(SCc3ccc4nonc4c3)nc21` [5-[(5-prop-2-enyl-[1,2,4]triazino[5,6-b]indol-3-yl)sulfanylmethyl]-2,1,3-benzoxadiazole] was tested, and the IC50 was > 50 µM.

In the case of `CCN1C(=O)/C(=C/c2nc3ccccc3c(=O)n2-c2ccccc2)c2ccccc21` [2-[(1-ethyl-2-oxo-1,2-dihydro-3H-indol-3-ylidene)methyl]-3-phenyl-4(3H)-quinazolinone], the IC50 is reported as > 50 µM.

In the case of `CCC(=O)Nc1ccc(-c2nnc(SCC(=O)Nc3nccs3)n2C)cc1` [MLS000076456], the IC50 is reported as > 50 µM.

In the case of `Cc1ccccc1NS(=O)(=O)c1cc(C(=O)NCc2ccco2)ccc1C` [MLS000052108], the IC50 is reported as > 50 µM.

For `COc1ccc(N(C)C2=NS(=O)(=O)c3ccccc32)cc1` [(1,1-Dioxo-1H-1lambda*6*-benzo[d]isothiazol-3-yl)-(4-methoxy-phenyl)-methyl-amine], the IC50 was > 50 µM.

`CCC(=O)N1CCN(c2ccc(NC(=O)c3ccc4c(c3)OCO4)cc2)CC1` [Benzo[1,3]dioxole-5-carboxylic acid [4-(4-propionyl-piperazin-1-yl)-phenyl]-amide] was tested, and the IC50 was > 50 µM.
